The results in this text go back to patent US5808139A (Ligand Pharmaceuticals Incorporated, priority 1994, dated 1998).

The subject of experiment [1] is progesterone receptor (T47D cells). In words: Antagonist assay in T47D (human breast cancer) cells (Tables 1 and 2). The format is cell-based. Particulars: for Efficacy (% maximal response relative to RU-486), T47D cells: antagonist activity; for IC50: concentration required to reduce the maximal response by 50%, read-out: Potency (IC50), T47D cells. From the text:
The functional activities of the cyclocymopol analogues in the human breast cell line, T47D, were also investigated. T47D cells have proven to be a particularly useful model to investigate the molecular actions of sex steroids because they contain endogenous functional receptors for, and respond to, progestins, and their respective antagonists. […] In T47D cells, progestins induce de novo synthesis of a plasma-associated alkaline phosphatase, which has been reported to be similar, if not identical, to the alkaline phosphatase present in the normal breast and human milk. These tests were conducted according to the following illustrative example.
The assay was also run using T47D (human breast cancer) cells.

The subject of experiment [2] is human progesterone receptor altered at the Tau-1 location. In words: Co-transfection assay in CV-1 cells, progesterone receptor altered at Tau-1, antagonist activity. Particulars: for Efficacy (% maximal response relative to RU-486), CV-1 cells: antagonist activity; for IC50: concentration required to reduce the maximal response by 50%, read-out: Potency (IC50), CV-1 cells. Format: cell-based. The source says:
This assay is described in further detail in U.S. Pat. Nos. 4,981,784 and 5,071,773, which are incorporated herein by reference. The co-transfection assay provides a method for identifying functional ligands (either agonists which mimic, or antagonists which inhibit, the effect of hormones) for ligand-responsive receptor proteins.
The co-transfection assay provides a mechanism to evaluate ability of a compound to function as an agonist or antagonist of the activity modulated by an intracellular receptor. The co-transfection assay mimics an in vivo system in the laboratory. In the co-transfection assay, a cloned gene for an intracellular receptor is introduced by transfection (a procedure to induce cells to take up foreign genes) into a background cell substantially devoid of endogenous intracellular receptors. This introduced gene directs the recipient cells to make the intracellular receptor protein. A second gene is also introduced (co-transfected) into the same cells in conjunction with the intracellular receptor gene. This second gene functions as a reporter for the transcription-modulating activity of the target intracellular receptor. The reporter acts as a surrogate for the products normally expressed by a gene under control of the target receptor and its natural hormone.
A preferred reporter gene is one which expresses the firefly enzyme luciferase. The co-transfection assay can detect small molecule agonists or antagonists of target intracellular receptors. Exposing the cells to an agonist ligand increases reporter activity in the transfected cells that can be conveniently measured, reflecting ligand-dependent, intracellular receptor-mediated increases in reporter transcription. To detect antagonists, the co-transfection assay is carried out in the presence of a constant concentration of an agonist known to induce a defined reporter signal. Increasing concentrations of a test antagonist will decrease the reporter signal. The co-transfection assay is therefore useful to detect both agonists and antagonists of specific intracellular receptors. It determines not only whether a compound interacts with a particular intracellular receptor, but also whether this interaction mimics (agonizes) or blocks (antagonizes) the effects of the natural regulatory molecules on target gene expression.
Co-transfected cells are exposed to a medium to which is added the potential ligand that is being evaluated. If the candidate ligand diffuses into the cell and binds to the receptor and the resulting complex functions as an agonist, it binds to the co-transfected reporter gene and initiates transcription. When that gene is one that expresses, for example, luciferase, luciferase is produced which catalyzes a light-emitting reaction with its substrate luciferin. Thus, after cell lysis and the introduction of luciferin, the amount of light produced relative to the concentration of candidate ligand used in the assay provides a measure of the potency and efficacy of the compound tested. Antagonist activity is evaluated by adding the candidate ligand and a known agonist to the co-transfected cells.
The receptor cDNA was introduced in a mammalian expression vector under the control of the Rous Sarcoma virus LTR. […] A reporter vector was also transfected, containing a firefly luciferase gene under the control of the hormone-responsive promoter. […] The level of luciferase activity was then measured in cell extracts. Light emission is directly proportional to the effectiveness of the hormone-receptor complex in activating gene expression.
A total of three replicates per concentration point were tested for each compound, and the EC50 was calculated for each positive response. Both agonist and antagonist activity for each test compound was determined in parallel. […]

Experiment [3] has as its system endometrium of the uterus. In words: Decidualization assay in pseudopregnant mice, oil-induced uterine weight gain. Format: in vivo. The conditions noted are these: for Inhibition of decidualization weight gain: vs oil control; for Net Uterine Weight Gain: intraluminal, autopsy Day 7, oil alone control 334.7 +/- 41.0. As to the method: A successful pregnancy requires not only the effective collision and fusion of egg and spermatozoon, but also the provision of a receptive and supportive uterus. The preparation of the endometrium of the uterus for implantation (i.e. decidualization) starts well before the blastocyst arrives in the uterus.
Psuedopregnant mice (i.e. mated with vasectomized males) were used to establish the assay system. […] At 16 hours of Day 4, a small volume of sesame oil (10 μl) was introduced to the lumen of the right uterine horn to serve as a decidual stimulus. The left horn was left undisturbed to serve as an internal control. Autopsies were performed on Day 7 to assess uterine wet weight gains in the stimulated versus non-stimulated uterine horns.
Each of these compounds was intraluminally administered in an appropriate dosage on Day 4 along with the sesame oil administration.

For experiment [4], the target named is T1, human progesterone receptor (Homo sapiens, UniProt P06401).
T1 sequence (P06401 1-933): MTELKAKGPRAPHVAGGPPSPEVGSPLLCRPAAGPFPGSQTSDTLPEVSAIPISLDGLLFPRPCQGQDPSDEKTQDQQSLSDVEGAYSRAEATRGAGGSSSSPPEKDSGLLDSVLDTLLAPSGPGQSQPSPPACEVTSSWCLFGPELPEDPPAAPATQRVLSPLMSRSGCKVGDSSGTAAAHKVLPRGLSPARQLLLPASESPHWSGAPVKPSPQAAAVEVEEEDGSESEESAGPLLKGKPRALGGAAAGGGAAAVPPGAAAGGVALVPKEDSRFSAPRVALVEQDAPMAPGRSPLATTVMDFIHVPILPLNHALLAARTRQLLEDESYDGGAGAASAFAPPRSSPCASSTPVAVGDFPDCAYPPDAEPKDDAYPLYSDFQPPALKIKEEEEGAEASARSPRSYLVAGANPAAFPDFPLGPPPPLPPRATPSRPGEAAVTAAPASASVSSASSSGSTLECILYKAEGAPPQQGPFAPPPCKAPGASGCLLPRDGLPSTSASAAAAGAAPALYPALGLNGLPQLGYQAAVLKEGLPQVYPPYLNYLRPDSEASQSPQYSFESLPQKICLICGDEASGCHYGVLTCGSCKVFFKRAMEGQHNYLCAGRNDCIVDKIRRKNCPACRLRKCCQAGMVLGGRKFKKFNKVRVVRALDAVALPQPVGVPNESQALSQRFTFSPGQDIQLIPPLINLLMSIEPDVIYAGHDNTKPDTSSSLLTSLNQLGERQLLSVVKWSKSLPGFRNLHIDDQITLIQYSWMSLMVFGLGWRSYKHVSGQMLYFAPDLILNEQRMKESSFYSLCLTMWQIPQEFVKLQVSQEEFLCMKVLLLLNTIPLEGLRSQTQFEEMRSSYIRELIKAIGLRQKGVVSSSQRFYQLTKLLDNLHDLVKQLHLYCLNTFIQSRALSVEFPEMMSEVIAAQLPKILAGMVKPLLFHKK
Put plainly: Progesterone receptor binding (displacement of 3H-progesterone, whole cell extract of transfected CV-1 cells). On the set-up: expressed in transfected cells; host or cells: CV-1 cells (calcium phosphate transfection), whole cell extract. As to the method: These tests were conducted according to the following illustrative example.
CO2 for 40 hours prior to harvest.
After incubation, cells were harvested and washed in phosphate buffered saline. Whole cell receptor extract was prepared by homogenizing the harvested cells in Tris-HCl buffer, pH=7.4, containing 30% glycerol, 1 mM EDTA, 12 mM monothioglycerol, 1 mM PMSF, and 0.5M potassium chloride. The homogenate was incubated at 4° C. for 60 min with resuspension every 10 min. The suspension was centrifuged (105,000×g, 60 min) and the supernatant was collected and flash frozen in liquid nitrogen and stored frozen at -70° C.
To a […] final volume incubation mixture, […] of 7.5% (w/v) dextran-coated charcoal suspension in gelatin phosphate buffer was added. The mixture was vortexed and incubated at 4° C. for 10 min and then centrifuged at 3000 rpm for 10 min. The amount of bound tritiated hormone was determined by liquid scintillation spectrophotometry of an aliquot of the supernatant. […]

Molecules are shown by their SMILES.

Consider `C=C1CCCC(C)(C)C1Cc1cc(OC)c(Br)cc1O` (stereo in doubt) [J, (3R)-1-Debromocyclocymopol monomethyl ether], for which, in experiment [1], the “Efficacy (% maximal response relative to RU-486), T47D cells” value is listed as 85%. Also, the “Efficacy (% maximal response relative to RU-486), CV-1 cells” value in experiment [2] came to 95%. Besides, in experiment [3] (5 mg), the “Inhibition of decidualization weight gain” value is reported as roughly 91% and the “Net Uterine Weight Gain” value came out at 30.7 ± 16.2 mg.
For the molecule `C=C1C=CCC(C)(C)C1Cc1cc(OC)c(Br)cc1OC(C)=O` (stereo not drawn) [L, 1-Methylidene-6-(2'-acetoxy-4'-bromo-5'-methoxyphenyl)methyl-5,5-dimethylcyclohex-2-ene], the Kd (in general, a measure of binding affinity in units of concentration) in experiment [4] worked out at 90 nM. In experiment [1], the “Efficacy (% maximal response relative to RU-486), T47D cells” value was 75% and the IC50 (in general, the midpoint of a concentration-inhibition curve) is 200 nM. In addition, in experiment [2], the “Efficacy (% maximal response relative to RU-486), CV-1 cells” value came to 55% and the IC50 is 825 nM.
The corresponding values for `C=C1C=CCC(C)(C)C1Cc1ccc([N+](=O)[O-])c(C)c1` (stereo not drawn) [M, 1-Methylidene-6-(3'-methyl-4'-nitrophenyl)methyl-5,5-dimethylcyclohex-2-ene] are 75 nM, 80%, 350 nM, 90% and 875 nM.
The corresponding values for `CC1(C)CC=CC(=O)C1Cc1ccc([N+](=O)[O-])cc1` (stereo not drawn) [MM, 6-(4'-Nitrophenyl)methyl-5.5-dimethylcyclohex-2-en-1-one] are 10000 nM, 90%, 390 nM, 74% and 1770 nM.
On the same counts, the results for `C=C1CC[C@@H](Br)C(C)(C)[C@@H]1Cc1cc(OC)c(C=O)cc1O` [NN, (3R)-4'-Formylcyclocymopol monomethyl ether] are 409 nM, 83%, 1800 nM, 31% and 2100 nM.
As for `C=C1CCCC(C)(C)C1Cc1ccc(Br)cc1` (stereo not drawn) [O, 1-Methylidene-2-(4'-bromophenyl)methyl-3,3-dimethylcyclohexane], the Kd in experiment [4] came to 445 nM. In experiment [1], the “Efficacy (% maximal response relative to RU-486), T47D cells” value is given as 85% and the IC50 was 850 nM. In experiment [2], the “Efficacy (% maximal response relative to RU-486), CV-1 cells” value is on record as 90% and the IC50 came out at 1000 nM.
On the same counts, the results for `C=C1CCC(C)(C)C1Cc1cc(OC)c(Br)cc1O` (stereo not drawn) [P, 1-Methylidene-2-(2'-hydroxy-4'-bromo-5'-methoxyphenyl)methyl-3,3-dimethylcyclo-pentane] are 440 nM, 60%, 275 nM, 100% and 1200 nM.
As for `C=C1CCCCC1Cc1ccc([N+](=O)[O-])cc1` (stereo not drawn) [Q, 1-Methylidene-2-(4'-nitrophenyl)methylcyclohexane], in experiment [4], the Kd was 245 nM. Moreover, in experiment [1], the “Efficacy (% maximal response relative to RU-486), T47D cells” value was 65% and the IC50 stood at 225 nM. For the same molecule, in experiment [2], the “Efficacy (% maximal response relative to RU-486), CV-1 cells” value was found to be 95% and the IC50 was 1200 nM.
On the same counts, the results for `C=C1CC[C@@H](Br)C(C)(C)[C@@H]1Cc1cc(OC)c(Br)cc1OC(=O)OC` [T, (3R)-Cyclocymopol monomethyl ether, methyl carbonate] are 185 nM, 90%, 300 nM, 90% and 1580 nM.
`C=C1CC[C@@H](Br)C(C)(C)[C@@H]1Cc1cc(OC)c(I)cc1O` [V, (3R)-4'-Iodocyclocymopol monomethyl ether]: the Kd in experiment [4] is 95 nM. In addition, in experiment [1], the “Efficacy (% maximal response relative to RU-486), T47D cells” value is reported as 85% and the IC50 was 325 nM. Besides, in experiment [2], the “Efficacy (% maximal response relative to RU-486), CV-1 cells” value turned out to be 95% and the IC50 is 1800 nM.
On to `CN(C)c1ccc([C@H]2C[C@]3(C)[C@@H](CC[C@]3(O)CCCO)[C@@H]3CCC4=CC(=O)CCC4=C32)cc1` [ZK299, reference compound], for which, in experiment [3] (0.1 mg), the “Inhibition of decidualization weight gain” value is recorded as “approximately 88%” and the “Net Uterine Weight Gain” value was determined as 41.1 ± 21.0 mg.
